Measurements as given in PubChem BioAssay (NCI).
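Step 1: Grow cells in 96-well plates. Step 2: Expose to compound for 48 hours at 5 concentrations. Step 3: Interpolate endpoints linearly; if unreached, use highest concentration. Abbreviation: GI50, concentration required for 50% inhibition of growth. The concentration for full growth arrest is given as TGI.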 Where a SMILES comes first, the peptide text is derived from it. The star is where a group is joined. Boc = CC(C)(C)OC(=O)*; tBu = CC(C)(C)*

Tests used:
Experiment in all cases: DTP human tumour cell line panel, 48 h
KM12 colon = tested on: KM12 colon
NCI-H23 lung = tested on: NCI-H23 lung
OVCAR-8 ovarian = tested on: OVCAR-8 ovarian
COLO 205 colon = tested on: COLO 205 colon
DU-145 prostate = tested on: DU-145 prostate
MCF7 breast = tested on: MCF7 breast
MDA-MB-231 breast = tested on: MDA-MB-231 breast
MDA-N = tested on: MDA-N
OVCAR-5 ovarian = tested on: OVCAR-5 ovarian
SW-620 colon = tested on: SW-620 colon

SMILES	TGI (KM12 colon)	TGI (NCI-H23 lung)	TGI (OVCAR-8 ovarian)	TGI (COLO 205 colon)	TGI (DU-145 prostate)	TGI (MCF7 breast)	TGI (MDA-MB-231 breast)	TGI (MDA-N)	TGI (OVCAR-5 ovarian)	TGI (SW-620 colon)	GI50 (COLO 205 colon)	GI50 (DU-145 prostate)	GI50 (KM12 colon)	GI50 (MCF7 breast)	GI50 (MDA-MB-231 breast)	GI50 (OVCAR-5 ovarian)	GI50 (OVCAR-8 ovarian)	GI50 (SW-620 colon)
O=C(NN1C(=O)C(Cl)C1c1c(O)ccc2ccccc12)c1ccccc1O (stereo not given)	> 100 µM	> 100 µM	> 100 µM															
O/N=C1\CSc2ccccc2C1	> 100 µM	> 100 µM	> 100 µM	> 100 µM	> 100 µM	> 100 µM	> 100 µM	> 100 µM	> 100 µM	> 100 µM								
Cc1cc(C)nc(NC(=S)Nc2ccc(Cl)cc2)c1	> 100 µM		71.5 µM	> 100 µM	> 100 µM	> 100 µM	> 100 µM	> 100 µM	> 100 µM	> 100 µM								
Cc1cc(NS(=O)(=O)c2ccc(NC(=O)c3ccc4nc5ccccc5c(Nc5ccc(S(=O)(=O)Nc6cc(C)on6)cc5)c4c3)cc2)no1	> 50 µM	> 50 µM	> 50 µM	> 50 µM	> 50 µM	> 50 µM	> 50 µM	> 50 µM	> 50 µM	> 50 µM								
CC(OC(C)(C)C)C(NC(=O)C(N)CCCCNC(=O)OC(C)(C)C)C(=O)NC(Cc1ccccc1)C(=O)O (stereo not given) (H-Lys(Boc)-Thr(tBu)-Phe-OH; configuration not given here)	> 100 µM	> 100 µM	> 100 µM	> 100 µM	> 100 µM	> 100 µM	> 100 µM	> 100 µM	> 100 µM	> 100 µM								
O=S(=O)(O)c1ccc2c(N=Nc3c(O)ccc4ccccc34)cccc2c1	> 100 µM	> 100 µM	> 100 µM	> 100 µM	> 100 µM	> 100 µM	> 100 µM	> 100 µM	> 100 µM	> 100 µM								
CON(C)C(=O)C(C)NC(=O)OC(C)(C)C (stereo not given)	> 100 µM	> 100 µM	> 100 µM	> 100 µM	> 100 µM	> 100 µM		> 100 µM	> 100 µM	> 100 µM								
COc1ccc(/C=N/n2c(Cc3ccccc3)n[nH]c2=O)cc1	> 100 µM	> 100 µM	> 100 µM	> 100 µM	> 100 µM	> 100 µM	> 100 µM	> 100 µM	> 100 µM	> 100 µM								
CO[C@]12C[C@@H](CNC(=O)c3cc(Br)c[nH]3)O[C@H]1NC(=O)N2	> 100 µM	> 100 µM	> 100 µM	> 100 µM	> 100 µM	> 100 µM	> 100 µM		> 100 µM	> 100 µM								
CCOc1cc(/C=C/C(=O)CC(=O)/C=C/c2ccc(OC(=O)CNCCN(CC)CC)c(OCC)c2)ccc1OC(=O)CNCCN(CC)CC	2.97 µM		12.2 µM	4.58 µM	3.56 µM	10.5 µM	6.08 µM		5.43 µM	3.41 µM	1.88 µM	1.61 µM	1.4 µM	0.782 µM	2.08 µM	2.27 µM	1.03 µM	1.29 µM
CCOc1cc2c(cc1O)CC[C@@H]1[C@@H]2CC[C@]2(C)[C@@H](O)CC[C@@H]12	10.8 µM	24.9 µM	33.5 µM	33.5 µM	9.15 µM	56.4 µM	6.67 µM	< 0.0198 µM	98.2 µM	> 100 µM								
Clc1cccc2[nH]ncc12	> 100 µM		> 100 µM	> 100 µM	> 100 µM	> 100 µM	> 100 µM	> 100 µM	> 100 µM	> 100 µM								
O=S(=O)(c1ccc2ccccc2c1)N1CCN(S(=O)(=O)c2ccc3ccccc3c2)CC1	> 100 µM	> 100 µM	> 100 µM	> 100 µM	> 100 µM	> 100 µM	> 100 µM	> 100 µM	> 100 µM	> 100 µM								
CC(=O)Nc1sccc1S(=O)(=O)c1ccc(Cl)cc1	> 100 µM	> 100 µM	> 100 µM	> 100 µM	> 100 µM	> 100 µM	> 100 µM		> 100 µM	> 100 µM								
O[C@]12c3ccccc3C1CCCCC2N1CCOCC1 (stereo not given in full)	> 100 µM	> 100 µM	> 100 µM	> 100 µM						> 100 µM								
CC1=NNC(=O)[C@H]2[C@H]1CCC1[C@@H]2CC[C@]2(C)[C@@H](O)CC[C@@H]12 (stereo not given in full)	> 100 µM	> 100 µM	> 100 µM	> 100 µM	> 100 µM	> 100 µM	> 100 µM	> 100 µM	> 100 µM	> 100 µM								
FC(F)(F)c1cnc(N/N=C(/c2ccccc2)c2ccccn2)c(Cl)c1	26.3 µM	25.1 µM	5.79 µM	20.6 µM	51.3 µM	6.7 µM	32 µM	> 100 µM	31.5 µM	> 100 µM								
C/C(CC(=O)Nc1cccc(Cl)c1C)=N\N=C(N)N	> 100 µM	> 100 µM	> 100 µM	> 100 µM					> 100 µM									
O=C(Nc1ccc(Cl)c(C(F)(F)F)c1)C(=O)c1c(O)c2ccccc2oc1=O	> 100 µM	> 100 µM	> 100 µM			> 100 µM	> 100 µM	> 100 µM	> 100 µM	> 100 µM								
NC(N)=N/N=C\c1c(-c2ccccc2)nc2sccn12	27.5 µM	25.4 µM	30.9 µM	24.6 µM	33 µM		27.3 µM	27.1 µM	30.6 µM	28.1 µM								
CSc1nc(C)cc(=O)n1C1OC(COC(C)=O)C(OC(C)=O)C(OC(C)=O)C1OC(C)=O (stereo not given)	> 100 µM	> 100 µM	> 100 µM	> 100 µM					> 100 µM	> 100 µM								
Cc1cc(OC(=O)Nc2ccc(Cl)cc2)ccc1C(=S)Nc1ccccc1	> 100 µM		> 100 µM	> 100 µM		> 100 µM		> 100 µM	> 100 µM	> 100 µM								
COc1ccc2nc(-c3ccc(O)cc3)ccc2c1	> 100 µM	> 100 µM	> 100 µM	> 100 µM					> 100 µM	> 100 µM								
